Measurements as given in patent publication US20260193244A1 (Protego Biopharma, Inc., priority 2022, published 2026).
Where a name gives a salt, the structure may show the parent alone.

Test system: IRE1-XBP1s (HEK293 T-REx cells stably expressing the XBP1-RLuc splicing reporter)
Assay: IRE1-XBP1s activation Assay (XBP1-RLuc splicing reporter, luminescence relative to thapsigargin, with or without IRE1 inhibitor 4μ8C)
Type: cell-based
Settings: 18 h, compound 10 μM, luminescence as percentage signal relative to thapsigargin (Tg) (500 nM, 18 h)
Experimental: IRE1-XBP1s activation Assay: HEK293 T-REx cells stably expressing the XBP1-RLuc splicing reporter were treated with an IRE1-XBP1s activator provided herein (10 μM) in the presence or absence of the IRE1 active site inhibitor 4μ8C (32 μM) for 18 h. Luminescence was shown as the percentage signal relative to thapsigargin (Tg) (500 nM, 18 h).

Structure (SMILES) | activation at 10 µM [%]
Cc1ccc(O[C@H]2CCCN(C(=O)Cn3cc(NC(=O)C4CC(Oc5cccc(C)n5)C4)cn3)C2)cc1 (some centres unmarked) [Compound 151] | < 30
Cc1ccc(OC2CCCCN(C(=O)Cn3cc(NC(=O)CCNc4ccnc(F)n4)cn3)C2)cc1 (centres unmarked) [Compound 171, 3-[(2-fluoropyrimidin-4-yl)amino]-N-[1-[2-[3-(4-methylphenoxy)azepan-1-yl]-2-oxo-ethyl]pyrazol-4-yl]propanamide] | < 30
Cc1ccc(OCCN(C)C(=O)Cn2cc(NC(=O)C3CC(Oc4ccccn4)C3)cn2)cc1 (centres unmarked) [Compound 140] | ≥ 50
Cc1ccc(OCCN(C)C(=O)Cn2cc(NC(=O)C3CCCC(Oc4ccncc4)C3)cn2)cc1 (centres unmarked) [Compound 101] | < 30
Cc1ccc(OC2CC3CC2N(C(=O)Cn2cc(NC(=O)CCNc4ccnc(F)n4)cn2)C3)cc1 (centres unmarked) [Compound 174] | < 30
O=C(CCNc1ccnc(F)n1)Nc1cnn(CC(=O)N2CCC[C@H](Oc3ccc(C(F)F)cc3)C2)c1 [Compound 179] | ≥ 50
Cc1ccc(OCCN(C)C(=O)Cn2cc(NC(=O)[C@H]3C[C@H](Oc4c(F)cncc4C(C)C)C3)cn2)cc1 [Compound 162] | < 30
Cc1ccc(OCCN(C)C(=O)Cn2cc(NC(=O)C3CCC(Oc4cccnc4)CC3)cn2)cc1 (centres unmarked) [Compound 103] | < 30
Cc1ccc(OCCC(=O)Nc2cnn(CC(=O)N3CCCCC(Oc4ccccc4)C3)c2)cc1 (centres unmarked) [Compound 48] | < 30
Cc1ccc(Oc2ccc(N(C)C(=O)Cn3cc(NC(=O)CCOc4cccc(C)c4)cn3)cc2)cc1 [Compound 26] | < 30
O=C(CCNc1ccnc(F)n1)Nc1cnn(CC(=O)N2CCC[C@@H](Oc3ccc(C(F)F)cc3)C2)c1 [Compound 187] | < 30
Cc1ccc(OCCN(C)C(=O)Cn2cc(N(C)C(=O)[C@@H]3CCC(=O)N(Cc4ccccc4)C3)cn2)cc1 [Compound 16] | < 30
Cc1ccc(OC2CCCN(C(=O)Cn3cc(NC(=O)CCOc4cncc(F)c4)cn3)C2)cc1 (centres unmarked) [Compound 75] | < 30
O=C(Cn1cc(NC(=O)[C@H]2C[C@H](Oc3ccccc3)C2)cn1)N1CCC[C@H](Oc2ccc(C(F)(F)F)cn2)C1 [Compound 109] | < 30
Cc1ccc(O[C@H]2CCCN(C(=O)Cn3cc(NC(=O)COc4cccnc4)cn3)C2)cc1 [Compound 149] | < 30
Cc1ccc(C2CN(C(=O)Cn3cc(NC(=O)CCOc4ccccc4)cn3)CCN2C)cc1 (centres unmarked) [Compound 45, N-(1-(2-(4-methyl-3-(p-tolyl)piperazin-1-yl)-2-oxoethyl)-1H-pyrazol-4-yl)-3-phenoxypropanamide] | < 30
Cc1ccc(O[C@H]2CCCN(C(=O)Cn3cc(NC(=O)C4CN(C(=O)OC(C)(C)C)c5ccccc5O4)cn3)C2)cc1 (some centres unmarked) [Compound 121] | < 30
Cc1ccc(OC2CC3(C2)CN(C(=O)Cn2cc(NC(=O)CCNc4ccnc(F)n4)cn2)C3)cc1 [Compound 181] | < 30
Cc1ccc(O[C@H]2CCCN(C(=O)Cn3cc(NC(=O)[C@@H]4COc5ccccc5O4)cn3)C2)cc1 [Compound 185] | < 30
Cc1ccc(OCCN(C)C(=O)Cn2cc(NC(=O)C3CNc4ccccc4C3)cn2)cc1 (centres unmarked) [Compound 66] | < 30

Structure (SMILES) | activation at 10 µM [%]
Cc1ccc(OCCN(C)C(=O)Cn2cc(NC(=O)C3COc4ccccc4O3)cn2)cc1 (centres unmarked) [Compound 154] | ≥ 50
CN(C(=O)Cn1cc(NC(=O)CCOc2ccccc2)cn1)C12CCC(Oc3ccc(C(F)(F)F)cc3)(CC1)CC2 [Compound 70] | ≥ 50
COc1ccc(N(C)C(=O)Cn2cc(NC(=O)CCOc3ccccc3)cn2)cc1 [Compound 113] | < 30
Cc1ccc(OC2CCCN(C(=O)Cn3cc(NC(=O)CCOc4ccccc4Cl)cn3)C2)cc1 (centres unmarked) [Compound 39] | ≥ 50
Cc1ccc(C2CCN(C(=O)Cn3cc(NC(=O)CCOc4ccccc4)cn3)C2)cc1 (centres unmarked) [Compound 18] | < 30
Cc1ccc(OC2CCC23CN(C(=O)Cn2cc(NC(=O)CCNc4ccnc(F)n4)cn2)C3)cc1 (centres unmarked) [Compound 177] | ≥ 50
Cc1ccc(OC2CCC23CN(C(=O)Cn2cc(NC(=O)CCNc4nccc(F)n4)cn2)C3)cc1 (centres unmarked) [Compound 134] | < 30
Cc1ccc(C2CCCN(C(=O)Cn3cc(NC(=O)CCOc4ccccc4)cn3)C2)cc1 (centres unmarked) [Compound 28] | < 30
Cc1ccc(O[C@H]2CCCN(C(=O)Cn3cc(NC(=O)CCOc4ccc(F)cc4C)cn3)C2)cc1 [Compound 94] | 30 to 50
Cc1ccc(OC2CCC23CN(C(=O)Cn2cc(NC(=O)C4COc5ccccc5O4)cn2)C3)cc1 (centres unmarked) [Compound 197] | < 30
Cc1ccc(OCCN(C)C(=O)Cn2cc(NC(=O)[C@H]3CC[C@@H](Oc4ccccc4)CC3)cn2)cc1 [Compound 1, (cis)-N-(1-(2-(methyl(2-(p-tolyloxy)ethyl)amino)-2-oxoethyl)-1H-pyrazol-4-yl)-4-phenoxycyclohexanecarboxamide] | < 30
CC1(Oc2ccc(Br)cc2)CCCN(C(=O)Cn2cc(NC(=O)CCOc3ccccc3F)cn2)C1 (centres unmarked) [Compound 78] | < 30
Cc1ccc(OC2COCCN(C(=O)Cn3cc(NC(=O)CCOc4ccccc4)cn3)C2)cc1 (centres unmarked) [Compound 65] | 30 to 50
Cc1ccc(OC2CCCN(C(=O)Cn3cc(NC(=O)CCOc4ccccc4C)cn3)C2)cc1 (centres unmarked) [Compound 36] | ≥ 50
Cc1ccc(O[C@H]2CCCN(C(=O)Cn3cc(NC(=O)CCOc4c(Br)cncc4[N+](=O)[O-])cn3)C2)cc1 [Compound 165] | ≥ 50
Cc1ccccc1OCCC(=O)Nc1cnn(CC(=O)N(C)c2ccc(Oc3ccccc3)cc2)c1 [Compound 34] | < 30
Cc1ccc(OC2CCC23CN(C(=O)Cn2cc(NC(=O)C4CC(Oc5ccncc5)C4)cn2)C3)cc1 (centres unmarked) [Compound 144] | ≥ 50
Cc1ccc(OCCN(C)C(=O)Cn2cc(NC(=O)[C@@H]3COc4ccccc4O3)cn2)cc1 [Compound 156] | < 30
Cc1ccc(OCCN(C)C(=O)Cn2cc(NC(=O)C3CC(Oc4ccncc4)C3)cn2)cc1 (centres unmarked) [Compound 139, N-(1-(2-(methyl (2-(p-tolyloxy)ethyl)amino)-2-oxoethyl)-1H-pyrazol-4-yl)-3-(pyridin-4-yloxy)cyclobutane-1-carboxamide] | ≥ 50
Cc1ccc(O[C@H]2CCCN(C(=O)Cn3cc(NC(=O)[C@H]4C[C@H](Oc5ccccn5)C4)cn3)C2)cc1 [Compound 106] | ≥ 50

Structure (SMILES) | activation at 10 µM [%]
Cc1ccc(OCCN(C)C(=O)Cn2cc(NC(=O)[C@@H]3CC[C@@H](Oc4ccccc4)C3)cn2)cc1 [Compound 8, (1R,3R)—N-(1-(2-(methyl(2-(p-tolyloxy)ethyl)amino)-2-oxoethyl)-1H-pyrazol-4-yl)-3-phenoxycyclopentanecarboxamide hydrochloride] | < 30
Cc1ccc(OCCN(C)C(=O)Cn2cc(NC(=O)c3cnccc3N)cn2)cc1 [Compound 112] | < 30
Cc1ccc(OC2CCCN(C(=O)Cn3cc(NC(=O)CCOc4cccnc4C(F)(F)F)cn3)C2)cc1 (centres unmarked) [Compound 91] | < 30
Cc1ccc(OCCN(C)C(=O)Cn2cc(NC(=O)C3CCCN(c4ccccc4)C3)cn2)cc1 (centres unmarked) [Compound 61] | < 30
Cc1ccc(Oc2ccc(N(C)C(=O)Cn3cc(NC(=O)CCOc4ccccc4)cn3)cc2)cc1 [Compound 118] | < 30
Cc1ccc(O[C@@H]2CCCN(C(=O)Cn3cc(NC(=O)CCOc4ccccc4F)cn3)C2)cc1 [Compound 72] | ≥ 50
CN(C(=O)Cn1cc(NC(=O)CCOc2ccccc2)cn1)c1ccc(Oc2ccc(C(F)(F)F)cc2)c(F)c1 [Compound 54] | < 30
Cc1ccc(OCCN(C)C(=O)Cn2cc(NC(=O)C3COc4cccc(C(C)C)c4O3)cn2)cc1 (centres unmarked) [Compound 126] | < 30
Cc1ccc(OCCN(C)C(=O)Cn2cc(NC(=O)C3CNc4cccc(F)c4O3)cn2)cc1 (centres unmarked) [Compound 127] | 30 to 50
Cc1ccc(OCCN(C)C(=O)Cn2cc(NC(=O)C3COc4c(F)cccc4O3)cn2)cc1 (centres unmarked) [Compound 129] | ≥ 50
Cc1ccc(OCCN(C)C(=O)Cn2cc(NC(=O)c3cccc(Oc4ccccc4)c3)cn2)cc1 [Compound 2] | < 30
COc1ccccc1OCCC(=O)Nc1cnn(CC(=O)N(C)c2ccc(Oc3ccc(C)cc3)cc2)c1 [Compound 25] | 30 to 50
Cc1ccc(OC2CCC23CN(C(=O)Cn2cc(NC(=O)C4CNc5ccccc5O4)cn2)C3)cc1 (centres unmarked) [Compound 193] | < 30
Cc1ccc(OCCN(C)C(=O)Cn2cc(NC(=O)[C@H]3CC[C@H](Oc4ccccc4)CC3)cn2)cc1 [Compound 5] | < 30
COc1ccc(OCCC(=O)Nc2cnn(CC(=O)N3CCCC(Oc4ccc(C)cc4)C3)c2)cc1 (centres unmarked) [Compound 41, 3-(4-methoxyphenoxy)-N-(1-(2-oxo-2-(3-(p-tolyloxy)piperidin-1-yl)ethyl)-1H-pyrazol-4-yl)propanamide hydrochloride] | < 30
CN(CCOc1ccc(C(F)(F)F)cn1)C(=O)Cn1cc(NC(=O)C2CNc3ccccc3O2)cn1 (centres unmarked) [Compound 191] | < 30
Cc1ccc(OCCN(C)C(=O)Cn2cc(NC(=O)[C@@H]3CCC[C@@H](Oc4ccccc4)C3)cn2)cc1 [Compound 13] | < 30
CN(C(=O)Cn1cc(NC(=O)CCOc2ccccc2)cn1)c1ccc(OC2CCC(C)(C)CC2)c(F)c1 [Compound 119] | < 30
O=C(CCOc1ccccc1)Nc1cnn(CC(=O)N2CCCC(Oc3ccc(C(F)(F)F)cc3)C2)c1 (centres unmarked) [Compound 4, N-(1-(2-oxo-2-(3-(4-(trifluoromethyl)phenoxy)piperidin-1-yl)ethyl)-1H-pyrazol-4-yl)-3-phenoxypropanamide hydrochloride] | 30 to 50
